Reference: patent US9512474B2, “Molecular targets and methods for formulation screening and preservative efficacy testing” (LONZA WALKERSVILLE INC., priority 2011, dated 2016)
Where “and” joins values, the source holds several entries; their conditions need not be identical. Equal values may be shown once.

Key:
Assay type in all cases: cell-based
Serratia marcescens [1] = experiment: Control plate of treated cells (colonies); details: 10^6 cells
Escherichia coli [2] = experiment: pre-rRNA RT-PCR viability assay (preservative efficacy testing)
Source text: (§1) The specific systems for E. coli, B. subtilis and S. marcescens are designed on the 3′ end of the 16S rRNA transcript. The three systems are species-specific. In these examples, the reverse primer hybridizes on the pre-rRNA region and the forward primer and probe in the mature rRNA region. The amplification will therefore be effective only if pre-rRNAs are present in the cells. FIG. 2 illustrates E. coli, B. subtilis and S. marcescens pre-rRNA-specific systems designed in the 3′ end of the 16S pre-rRNA for use with RT-PCR (forward primer, reverse primer, and forward probe).
(§2) Assays such as those disclosed herein, and assays developed under the guidelines of the provided examples, can be used in Formulation Screening and/or Preservative Efficacy Testing. An exemplary protocol is as follows: non-treated (or viable) and preservative-treated cells are analyzed in parallel with the same procedure and the same reagents: • Cells are calibrated to an expected density (CFU/ml) and collected by centrifugation on a filter membrane. • Two milliliters of RNA Booster (nutrients) are applied to the membrane of the filtration unit and these are incubated two hours for bacteria and four hours for fungi at 35° C.±2° C. (or appropriate temperature). • After incubation, the filtration units are centrifuged to remove the RNA Booster and 1.5 milliliters of lysis buffer are added to each membrane. • Cell lysates are recovered manually by pipetting and transferred into a lysis tube for a mechanical lysis process. • Lysate is then transferred in a sample prep tube. • RNA is extracted and purified using a known nucleic acid isolation method (i.e., RNA magnetic beads, silica resin). • DNA is removed by DNAse treatment to ensure predominantly an RNA target. • Eluted RNA is amplified by RT-PCR. The master mix used for the RT-PCR contains all reagents needed for the RT-PCR including specific primers and probe targeting the pre-rRNA or EF-3 mRNA sequences.
(§3) The referenced guidelines followed for this assay are the European Pharmacopoeia (EP)—Chapter 5.1.3 <<Efficacy of Antimicrobial Preservation>> and the United States Pharmacopeia (USP)—Chapter 51 <<Antimicrobial Effectiveness Testing>>. The value obtained by RT-PCR for the non-treated cells is compared to the value obtained for the treated cells. As used herein Ct stands for threshold cycle; i.e., the intersection between an amplification curve and a threshold line. According to the EP requirements, in a positive result as disclosed herein the difference of the Ct values is at least 3 logs, which corresponds to a ΔCt≧10 for bacteria and at least 2 logs, which corresponds to a ΔCt≧6.6 for fungi, after one day (24 hours) and seven days, respectively, for bacteria and fungi, of preservative treatment. USP requires data analysis after seven days and fourteen days for bacteria and fungi, respectively.
(§4) Preservative treatments were evaluated at high cells concentrations (10^6 and 10^5 cells per assay) that are commonly used for formulation screening. Five replicates at each cell concentration were analyzed. The Ct value corresponds to the RT-PCR cycle for which the level of fluorescence is outside the fluorescence background. The method compares Ct values for non-treated and treated cells and is expressed as the ΔCt.
(§5) The tables set forth below summarize the Ct values obtained for six bacteria and two fungi using six treatments: Heat, Isopropanol, Preservatives BAC, Poly-Q and IPBC and a commercial contact lens solution. Ct values obtained for non-treated cells (viable) are compared to Ct values obtained for treated cells. The ΔCt calculated is reported and must be ≧10 to meet the specification of 3 logs reduction for bacteria and must be ≧6.6 to meet the specification of 2 logs reduction for fungi. All assays are performed on the BD Max6 instrument from Becton Dickinson. Data are obtained by multiple operators on different days.

Serratia marcescens [3] = experiment: as above
Source text: as §1, §2, §3, §4, §5

Staphylococcus aureus [4] = experiment: as above
Source text: (§6) The specific systems for S. aureus, P. aeruginosa and S. epidermidis are designed on the 5′ end of the 23S rRNA. The three systems are species-specific. The forward primer hybridizes in the pre-rRNA region and the reverse primer and the forward probe in the mature rRNA region. The amplification is thus effective only if pre-rRNAs are present in the cells. FIG. 3 illustrates S. aureus, P. aeruginosa and S. epidermidis pre-rRNA-specific systems designed in the 5′ end of the 23S pre-rRNA for use with RT-PCR (forward primer, reverse primer, and forward probe).
as §2, §3, §4, §5

Pseudomonas aeruginosa [5] = experiment: as above
Source text: as §6, §2, §3, §4, §5

Pseudomonas aeruginosa [6] = experiment: Control plate of treated cells (colonies); details: 10^6 cells
Escherichia coli [7] = experiment: Control plate of treated cells (colonies); details: 10^6 cells
Staphylococcus aureus [8] = experiment: Control plate of treated cells (colonies); details: 10^6 cells
Aspergillus brasiliensis [9] = experiment: Control plate of treated cells (colonies); details: from day 1 to day 7 at room temperature (day not specified); 10^6 cells
Candida albicans [10] = experiment: EF-3 mRNA RT-PCR viability assay (preservative efficacy testing); details: 10^5 cells
Source text: The specific system for C. albicans is designed on the mRNA of the EF-3 gene. This system is species-specific. The forward primer, the forward probe and the reverse primer hybridize in the internal sequence of the mRNA of the EF-3 gene. The amplification is thus effective only if the EF-3 mRNAs are present in the cells. FIG. 5 illustrates C. albicans EF-3 mRNA specific system designed in the internal sequence of the EF-3 mRNA for use with RT-PCR (forward primer, reverse primer, and forward probe).
as §2, §3, §4, §5

Aspergillus brasiliensis [11] = experiment: pre-rRNA RT-PCR viability assay (preservative efficacy testing); details: 10^6 cells
Source text: The specific system for A. brasiliensis is designed on the 5′ end of the 5.8S rRNA. This system is species-specific. The forward primer hybridizes in the pre-rRNA region and the reverse primer and the forward probe in the mature rRNA region. The amplification is thus effective only if pre-rRNAs are present in the cells. FIG. 4 illustrates A. brasiliensis pre-rRNA-specific systems designed in the 5′ end of the 5.8S pre-rRNA for use with RT-PCR (forward primer, reverse primer, and forward probe).
as §2, §3, §4, §5

Candida albicans [12] = experiment: Control plate of treated cells (colonies); details: from day 1 to day 14 at room temperature (day not specified); 10^5 cells
[13] = 1 H at room temperature, 10^5 cells
[14] = 1 H at room temperature, 10^6 cells
[15] = 24 H at room temperature, 10^5 cells
[16] = 24 H at room temperature, 10^6 cells

## CC(C)O [Isopropanol]
Serratia marcescens [1]; 1 H at room temperature
  Colonies on control plate of treated cells: NC = Negative Control - Control plate of treated cells (10^6 cells) shows no colony on plate.
Escherichia coli [2]; [13]
  Ct Treated: 33.02 and 33.36 and 32.52 and 31.38 and 31.93
  Mean Ct (Treated): 32.44
  Δ Ct Viable − Dead: 17.56
Escherichia coli [2]; [14]
  Ct Treated: 32.91 and 32.51 and 32.31 and 32.98 and 33.93
  Mean Ct (Treated): 32.93
  Δ Ct Viable − Dead: 21.00
Serratia marcescens [3]; [13]
  Ct Treated: 29.10 and 30.70 and 31.00 and 29.90 and 30.30
  Mean Ct (Treated): 30.20
  Δ Ct Viable − Dead: 13.20
Serratia marcescens [3]; [14]
  Ct Treated: 26.90 and 26.20 and 25.90 and 25.40 and 25.50
  Mean Ct (Treated): 25.98
  Δ Ct Viable − Dead: 13.18
Staphylococcus aureus [4]; [13]
  Ct Treated: 29.99 and 29.43 and 29.12 and 29.97 and 29.89
  Mean Ct (Treated): 29.68
  Δ Ct Viable − Dead: 12.80
Staphylococcus aureus [4]; [14]
  Ct Treated: 26.32 and 26.40 and 25.27 and 24.94 and 26.57
  Mean Ct (Treated): 25.90
  Δ Ct Viable − Dead: 13.09
Pseudomonas aeruginosa [5]; [13]
  Ct Treated: 34.62 and 34.83 and 34.29 and 33.99 and 38.81
  Mean Ct (Treated): 35.31
  Δ Ct Viable − Dead: 10.99
Pseudomonas aeruginosa [5]; [14]
  Ct Treated: 34.59 and 33.28 and 33.21 and 34.18 and 33.26
  Mean Ct (Treated): 33.70
  Δ Ct Viable − Dead: 13.45
Pseudomonas aeruginosa [6]; 1 H at room temperature
  Colonies on control plate of treated cells: NC = Negative Control - Control plate of treated cells (10^6 cells) shows no colony on plate.
Escherichia coli [7]; 1 H at room temperature
  Colonies on control plate of treated cells: NC = Negative Control - Control plate of treated cells (10^6 cells) shows no colony on plate.
Staphylococcus aureus [8]; 1 H at room temperature
  Colonies on control plate of treated cells: NC = Negative Control - Control plate of treated cells (10^6 cells) shows no colony on plate.

## Benzalkonium Chloride [BAC]
Serratia marcescens [1]; 24 H at room temperature
  Colonies on control plate of treated cells: NC = Negative Control - Control plate of treated cells (10^6 cells) shows no colony on plate.
Aspergillus brasiliensis [9]
  Colonies on control plate of treated cells: NC = Negative Control - Control plate of treated cells (10^6 cells) shows no colony on plate.
Candida albicans [10]; Day 1 at room temperature
  Ct Treated: 33.70 and 32.70 and 31.60 and 29.30
  Mean Ct (Treated): 32.00
  Δ Ct Viable − Dead: 13.90
Candida albicans [10]; Day 7 at room temperature
  Mean Ct (Treated): 33.67
  Δ Ct Viable − Dead: 15.57
Candida albicans [10]; Day 14 at room temperature
  Mean Ct (Treated): 32.23
  Δ Ct Viable − Dead: 14.13
Escherichia coli [2]; [15]
  Ct Treated: 32.65 and 31.54 and 31.77 and 32.76 and 32.45
  Mean Ct (Treated): 32.23
  Δ Ct Viable − Dead: 18.57
Escherichia coli [2]; [16]
  Ct Treated: 32.61 and 34.26 and 33.74 and 30.48 and 33.39
  Mean Ct (Treated): 32.90
  Δ Ct Viable − Dead: 21.33
Serratia marcescens [3]; [15]
  Mean Ct (Treated): 36.13
  Δ Ct Viable − Dead: 20.09
Serratia marcescens [3]; [16]
  Ct Treated: 34.20 and 34.30 and 32.80 and 35.50
  Mean Ct (Treated): 34.20
  Δ Ct Viable − Dead: 22.28
Aspergillus brasiliensis [11]; Day 1 at room temperature
  Ct Treated: 21.80 and 21.60 and 22.10
  Mean Ct (Treated): 21.83
  Δ Ct Viable − Dead: 11.63
Aspergillus brasiliensis [11]; Day 2 at room temperature
  Ct Treated: 22.40 and 21.90 and 23.90
  Mean Ct (Treated): 22.73
  Δ Ct Viable − Dead: 12.53
Aspergillus brasiliensis [11]; Day 7 at room temperature
  Ct Treated: 22.60 and 24.70 and 22.50
  Mean Ct (Treated): 23.27
  Δ Ct Viable − Dead: 13.07
Staphylococcus aureus [4]; [15]
  Ct Treated: 29.75 and 30.23 and 29.39 and 29.28 and 30.03
  Mean Ct (Treated): 29.73
  Δ Ct Viable − Dead: 12.29
Staphylococcus aureus [4]; [16]
  Ct Treated: 26.23 and 27.50 and 26.54 and 26.71 and 26.64
  Mean Ct (Treated): 26.72
  Δ Ct Viable − Dead: 12.65
Pseudomonas aeruginosa [5]; [15]
  Mean Ct (Treated): 31.92
  Δ Ct Viable − Dead: 12.39
Pseudomonas aeruginosa [5]; [16]
  Mean Ct (Treated): 30.72
  Δ Ct Viable − Dead: 14.53
Candida albicans [12]
  Colonies on control plate of treated cells: NC = Negative Control - Control plate of treated cells (10^5 cells) shows no colony on plate.
Pseudomonas aeruginosa [6]; 24 H at room temperature
  Colonies on control plate of treated cells: NC = Negative Control - Control plate of treated cells (10^6 cells) shows no colony on plate.
Escherichia coli [7]; 24 H at room temperature
  Colonies on control plate of treated cells: NC = Negative Control - Control plate of treated cells (10^6 cells) shows no colony on plate.
Staphylococcus aureus [8]; 24 H at room temperature
  Colonies on control plate of treated cells: NC = Negative Control - Control plate of treated cells (10^6 cells) shows no colony on plate.
